Test results as given in patent US8912338B2, “Pesticidal compositions” (Dow AgroSciences LLC, priority 2010, dated 2014).

Tests used:
[1] = test system: Sweetpotato Whitefly (Bemisia tabaci); test: Insecticidal test for sweetpotato whitefly in foliar spray assay; type: in vivo; conditions: 200 ppm foliar spray on cotton plants infested with eggs, live nymphs counted after 8-9 days, Abbott's corrected % control, read-out: BEMITA % Ctrl @ 200 ppm
Procedure: Cotton plants were used as test substrate and were grown in 3-inch pots and pruned until only 1 small (3-5 cm) true leaf remained. The plants were then placed in a room with whitefly ([…]) adults and allowed to be infested with eggs. After a 2-3 day egg-laying period, plants were taken from the adult whitefly room and the adults were removed from the leaves using compressed air delivered through a hand-held Devilbiss sprayer (23 psi). Plants infested with eggs (100-300 eggs per plant) were placed in a controlled-environment room for 5-6 days at 82° F. and 50% RH until approximately 50% egg hatch. Four cotton plants (4 replicates) were used for each treatment. Compounds (2 mg) were dissolved in 1 mL of acetone solvent, forming stock solutions of 2000 ppm. The stock solutions were diluted 10× with 0.025% Tween 20 in H2O to obtain the test solution of 200 ppm. A hand-held Devilbiss sprayer was used for spraying a solution to both sides of cotton leaf until runoff. Reference plants (solvent check) were sprayed with the diluent only. Treated plants were held in a holding room for 8-9 days at approximately 82° F. and 50% RH prior to grading. Evaluation was conducted by counting the number of live nymphs per plant under a microscope. Insecticidal activity data presented in Table 3 were generated by using Abbott's correction formula: Corrected%Control=100*(X-Y)/X • where X=No. of live nymphs on solvent check plants • Y=No. of live nymphs on treated plants […]

[2] = test system: Cotton Aphid (Aphis gossypii); test: Insecticidal test for cotton aphid in a foliar spray assay; type: in vivo; conditions: 72 h, 200 ppm foliar spray on squash or cotton seedlings, live aphids counted after three days, Abbott's corrected % control, read-out: APHIGO % Ctrl @ 200 ppm
Procedure: Squash or cotton seedlings with fully expanded cotyledon leaves were trimmed to one cotyledon per plant and infested with wingless adult and nymph stage cotton aphid (APHIGO) one day prior to chemical application. Each plant was examined before chemical application to ensure uniform infestation (ca. 30-70 aphids per plant). Compounds (2 mg) were dissolved in 2 mL of acetone/methanol (1:1) solvent, forming stock solutions of 1000 ppm. The stock solutions were diluted 5× with 0.025% Tween 20 in H2O to obtain a solution at 200 ppm. A hand-held Devilbiss aspirator type sprayer was used to apply the spray solutions until runoff to both sides of the squash cotyledon leaves. Four plants (4 replications) were used for each concentration of each compound. Reference plants (solvent check) were sprayed with the diluent only. Treated plants were held in a holding room for three days at approximately 25° C. and 40% RH before the number of live cotton aphids on each plant was recorded. Insecticidal activity data presented in Table 3 were generated by using Abbott's correction formula: Corrected%Control=100*(X−Y)/X • where X=No. of live aphids on solvent check plants • Y=No. of live aphids on treated plants

[3] = test system: Green Peach Aphid (Myzus persicae); test: Insecticidal test for green peach aphid in foliar spray assay; type: in vivo; conditions: 72 h, 200 ppm foliar spray on cabbage seedlings, live aphids counted after three days, Abbott's corrected % control, read-out: MYZUPE % Ctrl @ 200 ppm
Procedure: Certain molecules disclosed in this document were tested against MYZUPE using procedures described in the following example. In the reporting of the results, the “MYZUPE, APHIGO and BEMITA Rating Table” was used (See Table Section).
Cabbage seedlings grown in 3-inch pots, with 2-3 small (3-5 cm) true leaves, were used as test substrate. The seedlings were infested with 20-50 green peach aphids (wingless adult and nymph stage) one day prior to chemical application. Four pots with individual seedlings were used for each treatment. Compounds (2 mg) were dissolved in 2 mL of acetone/methanol (1:1) solvent, forming stock solutions of 1000 ppm. The stock solutions were diluted 5× with 0.025% Tween 20 in H2O to obtain the test solution at 200 ppm. A hand-held Devilbiss sprayer was used for spraying a solution to both sides of cabbage leaves until runoff. Reference plants (solvent check) were sprayed with the diluent only. Treated plants were held in a holding room for three days at approximately 25° C. and 40% relative humidity (RH) prior to grading. Evaluation was conducted by counting the number of live aphids per plant under a microscope. Insecticidal activity data presented in Table 3 were generated by using Abbott's correction formula: Corrected%Control=100*(X−Y)/X • where X=No. of live aphids on solvent check plants • Y=No. of live aphids on treated plants

melting point [°C]	Structure (SMILES)	inhibition at 200 ppm [1] [%]	inhibition at 200 ppm [2] [%]	inhibition at 200 ppm [3] [%]
99 to 101	CSCCC(=O)N(C)c1nnc(-c2cccnc2)s1 [Compound 1]	0 to 80	80 to 100	80 to 100
70 to 72	CCSCCC(=O)N(C)c1nnc(-c2cccnc2)s1 [Compound 2]	0 to 80	80 to 100	80 to 100
92 to 97.5	COCCC(=O)N(C)c1nnc(-c2cccnc2)s1 [Compound 3]	0 to 80	80 to 100	80 to 100
100 to 105	CC(C)SCCC(=O)N(C)c1nnc(-c2cccnc2)s1 [Compound 4]	0 to 80	80 to 100	80 to 100
105 to 108	CN(C(=O)CCSCCc1ccccc1)c1nnc(-c2cccnc2)s1 [Compound 5]	0 to 80	0 to 80	0 to 80
93 to 95	CSCCCC(=O)N(C)c1nnc(-c2cccnc2)s1 [Compound 6]	0 to 80	80 to 100	80 to 100
211 to 212	CSCCC(=O)Nc1nnc(-c2cccnc2)s1 [Compound 7]	0 to 80	0 to 80	0 to 80
87 to 92	CCSCC(=O)N(C)c1nnc(-c2cccnc2)s1 [Compound 8]	< 0	80 to 100	80 to 100
116 to 120	CCN(C(=O)CCSC)c1nnc(-c2cccnc2)s1 [Compound 9]	0 to 80	80 to 100	80 to 100
116 to 118	CN(C(=O)CCSCc1ccccc1)c1nnc(-c2cccnc2)s1 [Compound 11]	0 to 80	0 to 80	0 to 80
137 to 139	CCOC(=O)CCC(=O)N(C)c1nnc(-c2cccnc2)s1 [Compound 12]	0 to 80	80 to 100	0 to 80
138 to 140	CN(C(=O)CC[S+](C)[O-])c1nnc(-c2cccnc2)s1 (stereo not shown) [Compound 18, N-methyl-3-(methylsulfinyl)-N-(5-(pyridin-3-yl)-1,3,4-thiadiazol-2-yl)propanamide]	0 to 80	80 to 100	80 to 100
92 to 95	COCCCC(=O)N(C)c1nnc(-c2cccnc2)s1 [Compound 19]	0 to 80	80 to 100	0 to 80
199 to 201	CN(C(=O)CCS(C)(=O)=O)c1nnc(-c2cccnc2)s1 [Compound 20, N-methyl-3-(methylsulfonyl)-N-(5-(pyridin-3-yl)-1,3,4-thiadiazol-2-yl)propanamide]	0 to 80	80 to 100	80 to 100
89 to 91	CSCC(C)(C)C(=O)N(C)c1nnc(-c2cccnc2)s1 [Compound 24, N-2,2-trimethyl-3-(methylthio)-N-(5-(pyridin-3-yl)-1,3,4-thiadiazol-2-yl)propanamide]	0 to 80	80 to 100	80 to 100
135 to 139	CSCC(=O)N(C)c1nnc(-c2cccnc2)s1 [Compound 29]	0 to 80	80 to 100	80 to 100

melting point [°C]	Structure (SMILES)	inhibition at 200 ppm [1] [%]	inhibition at 200 ppm [2] [%]	inhibition at 200 ppm [3] [%]
–	CC(CS(C)(=O)=O)C(=O)N(C)c1nnc(-c2cccnc2)s1 (stereo not shown) [Compound 37]	0 to 80	80 to 100	80 to 100
–	CN(C(=O)C(C)(C)CS(C)(=O)=NC#N)c1nnc(-c2cccnc2)s1 (stereo not shown) [Compound 42, N-2,2-trimethyl-3-(methyl-N-cyano-sulfoximinyl)-N-(5-(pyridin-3-yl)-1,3,4-thiadiazol-2-yl)propanamide]	0 to 80	0 to 80	80 to 100
208 to 212	CN(C(=O)C1(CS(C)(=O)=O)CC1)c1nnc(-c2cccnc2)s1 [Compound 46]	0 to 80	80 to 100	–
–	CCC(CC)(CSC)C(=O)N(C)c1nnc(-c2cccnc2)s1 [Compound 53]	0 to 80	80 to 100	0 to 80
104 to 106	CSCCOC(=O)N(C)c1nnc(-c2cncc(F)c2)s1 [Compound 78, [5-(5-fluoropyridin-3-yl)-[1,3,4]thiadiazol-2-yl]-methylcarbamic acid 2-methylsulfanyl-ethyl ester]	80 to 100	–	80 to 100
100 to 104	CSCCNC(=O)N(C)c1nnc(-c2cncc(F)c2)s1 [Compound 79, 1-[5-(5-fluoro-pyridin-3-yl)-[1,3,4]thiadiazol-2-yl]-1-methyl-3-(2-methylsulfanyl-ethyl)-urea]	0 to 80	–	80 to 100
137 to 140	CCOC(=S)N(C)c1nnc(-c2cncc(F)c2)s1 [Compound 80, [5-(5-fluoro-pyridin-3-yl)-[1,3,4]thiadiazol-2-yl]-methyl-thiocarbamic acid ethyl ester]	0 to 80	–	80 to 100
145 to 147	CN(C(=O)CSCc1ccccc1)c1nnc(-c2cncc(F)c2)s1 [Compound 84]	0 to 80	–	0 to 80
150 to 152	CSCCOC(=S)N(C)c1nnc(-c2cncc(F)c2)s1 [Compound 85, [5-(5-fluoro-pyridin-3-yl)-[1,3,4]thiadiazol-2-yl]-methyl-thiocarbamic acid 2-methylsulfanyl-ethyl ester]	0 to 80	–	0 to 80
109 to 111	CSCC(C)(C#N)C(=O)N(C)c1nnc(-c2cncc(F)c2)s1 (stereo not shown) [Compound 88]	0 to 80	–	80 to 100
154 to 157	CSCC(C)(CN)C(=O)N(C)c1nnc(-c2cncc(F)c2)s1 (stereo not shown) [Compound 89, 2-(aminomethyl)-N-[5-(5-fluoro-3-pyridyl)-1,3,4-thiadiazol-2-yl]-N,2-dimethyl-3-methylsulfanyl-propanamide]	0 to 80	–	0 to 80
90 to 93	CSCC(C)(C)C(=O)OCC(C)(C)C(=O)N(C)c1nnc(-c2cncc(F)c2)s1 [Compound 91]	80 to 100	–	80 to 100
176	CSCC(C)C(=O)Nc1nnc(-c2cccnc2)s1 (stereo not shown) [Compound 92]	0 to 80	–	0 to 80
43 to 46	C=CCSCC(C)C(=O)N(C)c1nnc(-c2cccnc2)s1 (stereo not shown) [Compound 94]	80 to 100	–	80 to 100
118 to 121	COCCNC(=S)N(C)c1nnc(-c2cccnc2)s1 [Compound 95]	0 to 80	–	80 to 100
